US5731334A, “Method for treating cancer using taxoid onium salt prodrugs” (priority 1995, dated 1998)
pIC50, pKd: −log10 of the molar value.

Columns and labels:
[1] = tested on: UCLA-P3 lung carcinoma cells; assay: XTT dye binding cytotoxicity assay, UCLA-P3; type: cell-based; details: Homo sapiens, UCLA P-3, 72 h
Description: (§1) All cell lines described herein were obtained from the ATCC and maintained in media formulations as recommended by the supplier. The cell lines were tested for mycoplasma contamination prior to incubation at 37° C. in 5% carbon dioxide. Normal human dermal fibroblasts, peripheral blood lymphoblasts and mammary epithelial cells were obtained from Clonogenic Cor., San Diego, Calif. and were maintained under the above incubation conditions in special media provided by the supplier.
(§2) Antiproliferative activities of the onium salts were determined using the XTT dye binding assay. Cells were harvested with trypsin/EDTA (Irvine Scientific), washed, resuspended in the appropriate medium, and counted in a hemocytometer using Trypan Blue to determine viability. Then 10^4 cells/well were added to 96 well microtiter plates and incubated for 24 hours before addition of drug at concentrations in the range of 10^-4 to 10^-13 molar by direct addition from DMSO solutions. After 72 hours, XTT binding dye was added and incubation was continued for 4 hours. The inhibition of cell proliferation was quantified using a Molecular Devices Microplate Reader. The absorbance of XTT was measured at […]. The concentration of drug which inhibited growth of cells by 50% was calculated from duplicated determinations.

[2] = tested on: Molt-4 T-cell leukemia cells; assay: XTT dye binding cytotoxicity assay, Molt-4; type: cell-based; details: Homo sapiens; Molt-4, T-cell leukemia; 72 h; read-out: IC50
Description: as §1, §2

tubulin = assay: Tubulin polymerization-depolymerization (microtubule assembly-disassembly) assay; type: biochemical, calf
[3] = Toxicity and survival in vivo (tumor bearing nude mice)
tumor cell lines = assay: Cytotoxicity, summary over tumor cell lines (XTT); type: cell-based, human and murine; details: on average
Description: Antiproliferative activities of the onium salts were determined using the XTT dye binding assay. Cells were harvested with trypsin/EDTA (Irvine Scientific), washed, resuspended in the appropriate medium, and counted in a hemocytometer using Trypan Blue to determine viability. […] After 72 hours, XTT binding dye was added and incubation was continued for 4 hours. The inhibition of cell proliferation was quantified using a Molecular Devices Microplate Reader. […] The concentration of drug which inhibited growth of cells by 50% was calculated from duplicated determinations.

U-2511 CNS cancer cells = assay: XTT dye binding cytotoxicity assay, U-2511; type: cell-based; details: Homo sapiens; U-2511, CNS cancer; 72 h; read-out: IC50
Description: as §1, §2

SK-Mel-28 melanoma cells = assay: XTT dye binding cytotoxicity assay, SK-Mel-28; type: cell-based; details: Homo sapiens; SK-Mel-28, melanoma; 72 h; read-out: IC50
Description: as §1, §2

[4] = In vivo elimination in BALB/C mice; details: 24 hours after injection
Description: C-2'-MPA-Taxol (1 mM in 0.9% saline solution, 400 μL) was injected along with tritiated taxol at 32000 cpm into normal BALB/C mice (4 mice each) housed in metabolic cages and the urine and feces were measured periodically in a scintillation counter using Achillea scintillation fluid.
The antitumor activity of the onium salts of taxol were assessed in nude mice bearing tumors of human A-549 lung adenocarcinomas, Ovcar-3 ovarian carcinoma, and PC-3 prostate carcinoma cells. […] FIG. 5 illustrates antiproliferation results for 2'-MPA-3-thiophene-taxol (4) and 2' MPA taxol (2) for the Ovcar-3 human tumor xenograft. […] FIG. 6, summarizes the results for a PC-3, prostate tumor model study. Taxol was compared with both the 2'- and 7-substituted oxonium salts. […] Tritiated taxol and 2' MPA-taxol were used in drug elimination experiments in normal BALB/C mice. In both groups of mice of four animals each, only 4-5% of the administered radioactivity was measured in the combined urine and feces 24 hours after injection.

[5] = tested on: PC-3 prostate carcinoma tumor xenograft; assay: PC-3 prostate tumor xenograft in nude mice
Description: Athymic nude mice were purchased from Harlan-Sprague-Dawley. The animals were housed in microisolated cases under positive air pressure and all manipulations and drug treatments were performed in a laminar flow cabinet. Tumor cells were grown under the above tissue culture conditions. Cell suspensions in RPMI medium were injected S./C. Treatment was started one day after inoculation by i.p. injection of 400 μl drug solutions. Tumors were measured 3 times weekly in two dimensions, using calipers and tumor volume as calculated using the formula (V=w^2 ×L×(3.142).
The tumor model was generated from an ATTC PC-3 prostate carcinoma cell line that was maintained under standard cell proliferation conditions, viz. 37° C., 5% carbon dioxide in sterile air. Each cohort was comprised of eight randomly chosen female athymic nude mice, for a total population size of twenty four. Hemocytometer counted cells, suspended in Hanks mediun (Gibco, Grand Island N.Y.) were implanted S.C. (10^6 cells in 0.4 mL per mouse). Solid tumor growth was measured on each third day. Equimolar amounts of the test compounds (1.0 mM, 400 μL) were injected i.p. on days 1, 3, 5, 7, 9, and 11 using the following media:
(.smallcircle.): Control, 5% dextrose in 5× distilled water (5 DW)
(Δ): Taxol (18.0 mg/kg of animal weight or approximately 1.260 mg/m^2) suspended in Cremaphor/D5W
Inferences about efficacy were drawn by ANOVA followed by protected t-test. […] Data shown as mean value with standard error.

[6] = tested on: BT-549 breast carcinoma cells; assay: XTT dye binding cytotoxicity assay, BT-549; type: cell-based; details: Homo sapiens; BT-549, breast carcinoma; 72 h; read-out: IC50
Description: as §1, §2

[7] = tested on: M-24 metastatic melanoma cells; assay: XTT dye binding cytotoxicity assay, M-24; type: cell-based; details: Homo sapiens, M24; M-24, melanoma-metastatic; 72 h; read-out: IC50
Description: as §1, §2

NHDF dermal fibroblast = assay: XTT dye binding cytotoxicity assay, NHDF; type: cell-based; details: Homo sapiens, dermal fibroblast (untransformed), 72 h, read-out: IC50
Description: as §1, §2

[8] = tested on: OVCAR-3 ovarian carcinoma cells; assay: XTT dye binding cytotoxicity assay, OVCAR-3; type: cell-based; details: Homo sapiens; OVCAR-3, ovarian carcinoma; 72 h; read-out: IC50
Description: as §1, §2

[9] = Stability in water, assay medium and storage solution; type: physicochemical
From the text: used and differing ultraviolet absorption maxima between the prodrug and the drug, the stability was easily assayed using UV detection. In all the ensuing studies, the only degradation products detected were the taxoids and the pyridinone that results from the hydrolysis of the onium salts. In water, these compounds show surprising stability for up to weeks depending upon the storage conditions. […] The fraction of ethyl acetated extractable material was between 18 and 23% for all onium salts and 95% for the present compounds.
FIG. 2 illustrates the results of GTP induced polymerization and calcium chloride induced depolymerization of tubulin in the presence of taxol and the 2'- and 7-MPA substituted derivatives.

[10] = Comparative toxicities (lethality) in mice; details: in vivo
[11] = tested on: Capan 1 pancreas cancer cells; assay: XTT dye binding cytotoxicity assay, Capan 1; type: cell-based; details: Homo sapiens; Capan 1, pancreas cancer; 72 h; read-out: IC50
Description: as §1, §2

[12] = tested on: PC-3 prostate carcinoma cells; assay: XTT dye binding cytotoxicity assay, PC-3; type: cell-based; details: Homo sapiens, 72 h
Description: as §1, §2

[13] = tested on: 786-0 renal cell carcinoma cells; assay: XTT dye binding cytotoxicity assay, 786-0; type: cell-based; details: Homo sapiens; 786-0, renal cell carcinoma; 72 h; read-out: IC50
Description: as §1, §2

[14] = tested on: SK-N-SH neuroblastoma cells; assay: XTT dye binding cytotoxicity assay, SK-N-SH; type: cell-based; details: Homo sapiens, neuroblastoma, 72 h, read-out: IC50
Description: as §1, §2

intact Molt-4 cells = assay: Competition binding of tritiated compounds to intact Molt-4 cells; parameters: species or system human
Description: The competition by nonradioactive taxol or c-2'-MPA-taxol for the binding of 1×10^-9 M tritiated compounds by intact Molt-4 cells is illustrated in FIG. 3. Tritiated taxol (Moravek Corp.) was treated with 2-fluoropyridiunium tosylate according to the method of Nicolaou et al. to yield the C-2'-MPT-^3 H-taxol. (Angew. Chem., Int. Ed. 1994: vol. 34, pp. 1583-1587.) Six well plates were incubated with 10^6 Molt-4 cells in 50 mM phosphate buffered saline (PBS) or PRPMI media to which 10^-9 M of the radiolabeled taxol or taxol onium salt was added together with increasing concentrations of nonradiolabeled compound. After 30 minutes, the cells were centrifuged, washed with PBS and 1% SDS was added. […] Alternatively, the cells may be lysed by sonication.

CC(=O)O[C@H]1C(=O)[C@@]2(C)[C@H]([C@H](OC(=O)c3ccccc3)[C@]3(O)C[C@H](OC(=O)[C@H](Oc4cccc[n+]4C)[C@@H](NC(=O)c4ccccc4)c4ccccc4)C(C)=C1C3(C)C)[C@]1(OC(C)=O)CO[C@@H]1C[C@@H]2O [Compound 2]
pIC50 [1]: 8.61 | pIC50 [2]: 8.15 | tubulin binding in words (tubulin): no tubulin binding | reversal to tubulin (calcium induced depolymerization) (tubulin; CaCl2, 10^-6 M drug): about 70% | Toxicity ([3]; Table II, in vivo): low | % survival ([3]; at end of experiments): 100% | in vivo tolerance / toxicity in words ([3]; nude mice): well tolerated, showing no visible toxic side effects and no significant weight loss | cytotoxicity relative to the C-7-isomer (3) (tumor cell lines): about 10 fold | pIC50 (U-2511 CNS cancer cells): 6.07 | pIC50 (SK-Mel-28 melanoma cells): 7.06 | administered radioactivity in the combined urine and feces [4]: 4-5% | antitumor activity, PC-3 ([5]; 1.0 mM, 400 μL i.p., established tumors): regression of established tumors | complete remission with no palpable tumor mass, PC-3 ([5]; at termination, after 24 days): 5 out of 8 animals | pIC50 [6]: 8.24 | pIC50 [7]: 9.46 | pIC50 (NHDF dermal fibroblast): 6.42 | pIC50 [8]: 8.13 | storage stability ([9]; 1-2% Tween #80 or Tween #20 with or without ethyl alcohol): stable and may stored without significant loss | stability under the assembly-disassembly conditions ([9]; HPLC analysis): completely stable | in vivo toxicity relative to taxol or taxotere [10]: much less toxic in vivo than taxol or taxotere | Toxicity ([10]; mouse): minimal toxicity | lethality ([10]; mouse): no lethality | pIC50 [11]: 8.24 | pIC50 [12]: 8.19 | pIC50 [13]: 7.56 | pIC50 [14]: 8.50 | pKd (intact Molt-4 cells; calculated from slopes of linear portions of curves in FIG. 3, read-out: binding constant): 5.52 | affinity in competition assays of intact cells, in words (intact Molt-4 cells; relative to parent taxol): three orders of magnitude below that of the parent taxol | lower specific binding affinity than taxol (intact Molt-4 cells; relative to taxol): approximately 1000 fold
